Experimental data: article PMC8986778, “Citrullination of glucokinase is linked to autoimmune diabetes” (Nature Communications, 2022)

Columns and labels:
[1] = system: recombinant human pancreatic glucokinase; assay: Catalytic activity of recombinant human pancreatic glucokinase (G6PDH coupled assay); assay type: biochemical; design: catalytic activity: unit not given beside the values; conditions: for catalytic activity: source data sheet Fig 5c; for Vmax / Km: steady-state kinetics at 37 °C, Michaelis-Menten fit; for Vmax: glucose 0–50 mM; for Km: substrate glucose 0–50 mM
Protocol: For in vitro citrullination, 0.1U of rabbit peptidylarginine deiminase (PADI2; Sigma–Aldrich) were added to 50 µg of recombinant human pancreatic glucokinase (rhGK; LS-G3456, LSBio) in reaction buffer (0.1 M Tris-HCl, 10 mM CaCl2 and 5 mM DTT) at 37 °C for 2.5 hrs and kept at -80 °C in multiple aliquots to avoid freeze and thaw until used. Minimum 6 µg of rhGK and PAD-treated-rhGK were reduced, alkylated and tryptic digested for LS-MS/MS analysis. Data were collected on a QE-Plus mass spectrometer coupled to a NanoACQUITY UPLC (Waters Inc.). A Waters Symmetry® C18 180 μm × 20 mm trap column and a 1.7-μm, 75 μm × 250 mm nanoACQUITY UPLC column (35 °C) was utilized for the separation. Collected LC–MS/MS data were processed using Proteome Discoverer Software (v. 2.2, Thermo Fisher Scientific) and searched were carried out in MASCOT Search Engine (Matrix Science) using the below parameters; oxidation (M), deamidated (N/Q) and citrullination (R) as the variable modifications and carbamidomethylation (C) as a fixed modification. Mascot results were loaded into Scaffold Q + S 4.11.0 and then Scaffold PTM 3.3.0 was used to re-analyze MS/MS spectra identified as citrulline modified peptides. Calculated Ascore values for citrullinated peptides containing the neutral loss of isocyanic acid (−43 Da)[54] indicate the level of site localization probabilities to assess the level of confidence in each citrullination PTM localization. Scaffold PTM then combines localization probabilities for all peptides containing each identified PTM site to obtain the best estimated probability that a PTM is present at that particular site. Manual MS/MS inspection of the modified peptides were also carried out to ensure correct assignments/localizations of the citrullination sites (detailed MS/MS spectra are presented in Source Data-File 2 spreadsheet).
After in vitro citrullination by PAD as described above, recombinant human pancreatic glucokinase (rhGK; LS-G5486, LSBio) was put on the ice to stop the reaction for 5 min. Then glucokinase activity was measured spectrophotometrically (A340nm) at 37 °C by a glucose 6-phosphate dehydrogenase (G6PDH) coupled assay as described previously. In brief, 1 µg rhGK or PAD-treated rhGK was assayed in a reaction buffer containing 25 mM Hepes (pH7.3), 2 mM MgCl2, 1 mM DTT, 0.5 mM NADP, 2 mM ATP, 0.01%BSA, 20U/ml G6PDH and 25 mM D-( + )-glucose. Relative specific activity of glucokinase was calculated from linear regression of the change in A340nm. To determine the steady-state kinetic properties of both rhGK and PAD-treated rhGK, varying concentrations of D-( + )-glucose (0–50 mM) were used. Vmax and Km were calculated by Michaelis-Menten equation using GraphPad Prism Software.

[2] = system: glucokinase; conditions: randomized, double-blind and placebo-controlled study; cited from earlier work
Description: As mentioned above, ATP-dependent GK converts glucose to glucose-6-phosphate, the critical step in glucose metabolism. Alternative splicing of the GK gene results in three tissue-specific isoforms, isoform 1 (pancreas) and isoforms 2 and 3 (liver). The only difference among three GK isoforms is in the amino acid sequence of exon 1 in the first fifteen amino acids of human pancreatic glucokinase. Unlike other hexokinases, GK is not regulated by feedback inhibition by glucose-6-phosphate. Therefore, GK can constitutively trigger insulin secretion in pancreatic β-cells under high glucose cond ...

[3] = system: INS-1E cells; assay: Insulin secretion assay; assay type: cell-based, rat
Protocol: (§1) For insulin secretion assay, the INS-1E cells, a gift from Prof. Wollheim (CMU, Geneva, Switzerland)[53], were seeded on 6 well plate and cultured with recombinant mouse IFNγ (100 units/mL; R&D Systems) and recombinant human IL-1β (5 units/mL; R&D Systems) in the presence or absence of PAD2/PAD4 inhibitor (5 µM YW3-56; Cayman) for 48 hrs. Cells were washed and starved for 1 hr in low-glucose KREBS buffer (138 mM NaCl, 4.7 mM KCl, 1 mM CaCl2, 1.18 mM KH2PO4, 1.18 mM MgSO4, 5 mM NaHCO3, 25 mM Hepes (pH7.4), 0.1% BSA and 2.5 mM glucose). Assay buffer was then replaced with KREBS buffer containing either varying glucose concentration (2.5, 5, 9 and 16.7 mM), 10 mM sodium pyruvate or 30 mM KCl. After another 1 hr incubation, supernatants were collected and assayed for insulin by using Rat High Range Insulin ELISA kit (ALPCP) according to manufacturer’s protocol and analyzed using Microsoft excel Software. All experiments were performed using INS-1E cells between the 61st and 65th passage.

[4] = system: INS-1E cells; assay: Protein citrullination immunoblot (anti-modified citrulline); assay type: cell-based, rat; conditions: IFNγ 100U/ml plus IL-1β 5U/ml, 5 µM YW3-56, 48 hrs
Description: Presence of citrullinated protein was detected by using anti-citrulline (Abcam, ab6464) for immunohistochemistry as described elsewhere, by using anti-peptidyl-citrulline, clone F95 (Millipore, MABN328) for flow cytometry and confocal microscopy and by using anti-modified citrulline detection kit, clone C4 (Millipore, 17-347B) for immunoblot according to manufacturer’s protocol. The specificity and sensitivity of the above commercial antibodies for the detection of protein citrullination were described previously[47],[48] and in our recent reports[9],[51],[52].
as §1, with “Assay buffer was then replaced with KREBS buffer containing either varying glucose concentration (2.5, 5, 9 and 16.7 mM), 10 mM sodium pyruvate or 30 mM KCl.” left out, “All experiments were performed using INS-1E cells between the 61st and 65th passage.” left out

[5] = system: PAD4; conditions: pan-PAD inhibitor; no reference printed (compound from Cayman); cited from earlier work
Protocol: Proinflammatory cytokines are known to attenuate glucose stimulated insulin secretion (GSIS), mediated by glucokinase, as studied elsewhere[29]–[31]. We utilized a subclonal cell line from the parenteral INS-1 cells, INS-1E, to examine GSIS and how citrullination may alter the glucose sensing/insulin secreting metabolic pathway. We also utilized YW3-56, a pan-PAD inhibitor (IC50: […] and 1–5 µM for PAD2 and PAD4, respectively), in studies of GSIS in INS-1E cells as a means of blocking protein citrullination. First, we confirmed by immunoblot detection of citrulline that IFNγ+ IL-1β cytoki ...

[6] = 25 mM glucose, 1 µg protein, replicate 1
[7] = 25 mM glucose, 1 µg protein, replicate 2

In the case of “PAD-treated rhGK: rhGK citrullinated in vitro by rabbit peptidylarginine deiminase (PADI2)”, the “reduction of catalytic activity by citrullination” value ([1]; 25 mM glucose, 1 µg protein, versus native rhGK) is reported as 20%, the catalytic activity [1, 6] is reported as 56.53 and the catalytic activity [1, 7] is reported as 60.82. For the same compound, the Vmax [1] was 119.9 ± 7.7 µmol/mg/min and the Km [1] was 16.2 ± 2.3 mM.
In the case of CCCO[C@H]1CC[C@H](N(C(=O)Nc2ncc(SCC(=O)O)s2)C2CCCCC2)CC1 [TTP399], the “clinical effect in patients with T1D” value [2] is given as “lower HbA1C and reduce hypoglycemia without increasing the risk of ketosis”.
“rhGK: Recombinant human pancreatic glucokinase” showed a catalytic activity [1, 6] of 72.34, a catalytic activity [1, 7] of 76.63 and a Vmax [1] of 115.1 ± 10.5 µmol/mg/min. The Km [1] was 8.48 ± 2.1 mM.
For YW3-56, the “citrullination levels or GSIS, inhibitor alone” value ([3]; 5 µM YW3-56 without cytokines, 48 hrs) was “did not affect”, the “cytokine-mediated suppression of insulin secretion upon pyruvate stimulation” value ([3]; 10 mM sodium pyruvate, 5 µM YW3-56 with cytokines 48 h) was “able to correct” and the “IFNγ + IL-1β suppressed GSIS” value ([3]; 16.7 mM glucose, YW3-56 cocultured with cytokines for 48 h) was “partially correct”. The “insulin secretion to depolarization with KCL” value ([3]; 30 mM KCl, cytokines in the presence or absence of YW3-56) was “not affected”, the insulin secretion ([3]; YW3-56 alone (no cytokine), glucose 2.5 (head prints nM), replicate 1) was 20.6698 and the insulin secretion ([3]; YW3-56 alone, KCl, replicate 1) was 216.859. For the same compound, the insulin secretion ([3]; YW3-56 alone, KCl, replicate 2) was 173.302, the insulin secretion ([3]; YW3-56 alone, KCl, replicate 3) was 216.475 and the insulin secretion ([3]; YW3-56 alone, glucose 2.5 (head prints nM), replicate 2) was 24.1975. The insulin secretion ([3]; YW3-56 alone, glucose 2.5 (head prints nM), replicate 3) was 21.4049, the insulin secretion ([3]; YW3-56 alone, glucose 5 (head prints nM), replicate 1) was 75.1459 and the insulin secretion ([3]; YW3-56 alone, glucose 5 (head prints nM), replicate 2) was 84.4819. It also gave an insulin secretion ([3]; YW3-56 alone, glucose 5 (head prints nM), replicate 3) of 61.4806, an insulin secretion ([3]; YW3-56 alone, glucose 16.7 (head prints nM), replicate 1) of 227.056 and an insulin secretion ([3]; YW3-56 alone, glucose 16.7 (head prints nM), replicate 2) of 273.99. It also gave an insulin secretion ([3]; YW3-56 alone, glucose 16.7 (head prints nM), replicate 3) of 236.558, an insulin secretion ([3]; YW3-56 alone, pyruvate, replicate 1) of 292.452 and an insulin secretion ([3]; YW3-56 alone, pyruvate, replicate 2) of 273.99. The insulin secretion ([3]; YW3-56 alone, pyruvate, replicate 3) was 273.99, the insulin secretion ([3]; cytokine (IFNγ + IL-1β) + YW3-56 5 µM 48 hrs, 1 hr glucose 2.5 (head prints nM), replicate 1) was 42.5356 and the insulin secretion ([3]; cytokine + YW3-56 48 hrs, KCl, replicate 1) was 91.8746. For the same compound, the insulin secretion ([3]; cytokine + YW3-56 48 hrs, KCl, replicate 2) was 82.0356, the insulin secretion ([3]; cytokine + YW3-56 48 hrs, KCl, replicate 3) was 59.5376 and the insulin secretion ([3]; cytokine + YW3-56 48 hrs, glucose 2.5 (head prints nM), replicate 2) was 26.9388. For the same compound, the insulin secretion ([3]; cytokine + YW3-56 48 hrs, glucose 2.5 (head prints nM), replicate 3) was 26.5034, the insulin secretion ([3]; cytokine + YW3-56 48 hrs, glucose 5 (head prints nM), replicate 1) was 38.7513 and the insulin secretion ([3]; cytokine + YW3-56 48 hrs, glucose 5 (head prints nM), replicate 2) was 47.2935. For the same compound, the insulin secretion ([3]; cytokine + YW3-56 48 hrs, glucose 5 (head prints nM), replicate 3) was 37.2188, the insulin secretion ([3]; cytokine + YW3-56 48 hrs, glucose 16.7 (head prints nM), replicate 1) was 95.9987 and the insulin secretion ([3]; cytokine + YW3-56 48 hrs, glucose 16.7 (head prints nM), replicate 2) was 101.342. It also gave an insulin secretion ([3]; cytokine + YW3-56 48 hrs, glucose 16.7 (head prints nM), replicate 3) of 93.7876, an insulin secretion ([3]; cytokine + YW3-56 48 hrs, pyruvate, replicate 1) of 78.6578 and an insulin secretion ([3]; cytokine + YW3-56 48 hrs, pyruvate, replicate 2) of 90.7306. For the same compound, the insulin secretion ([3]; cytokine + YW3-56 48 hrs, pyruvate, replicate 3) was 140.964, the “IFNγ+ IL-1β cytokine-induced citrullination levels” value [4] was “reduced” and the IC50 [5] was 1000 to 5000 nM.
